Experimental data reported in patent US9365566B2 (Takeda Pharmaceutical Company Limited, priority 2012, dated 2016).

Molecular target: T1, human BTK (Homo sapiens, UniProt Q06187)
T1 construct: GST (Glutathione-S-Transferase) (cleaved yes); made in house; host or cells: Spodoptera frugiperda Sf9 cells (baculovirus, Bac-to-Bac)
Experiment: BTK inhibition assay: BTK-mediated phosphorylation of FAM-labeled substrate 5-FAM-EEPLYWSFPAKKK-NH2 (Caliper LC-3000)
Type: biochemical
Conditions: pIC50 = -log(IC50), IC50 molar; residues 382 to 659 of human BTK; incubated at room temperature for 60 minutes; larger values represent higher potency
From the text: The activity of compounds as BTK inhibitors may be determined by a variety of methods, including in vitro and in vivo methods.
This construct engineers an in-frame translational fusion with the Glutathione-S-Transferase (GST) protein for use in affinity purification. The fusion protein derived from this construct contains a protease recognition sequence to liberate the BTK from the GST affinity tag. High-titer baculoviral stocks, generated using the Bac-to-Bac® system (Invitrogen), are used to express the recombinant protein in Spodoptera frugiperda Sf9 cells in 10 L Wave bags. Recombinant proteins are isolated from cellular extracts by passage over Glutathione Sepharose 4B (GE Healthcare) and the BTK moiety is released from the GST affinity tag by treatment with PreScission protease. The BTK recombinant protein is further purified by size exclusion chromatography (HiLoad 16/60 Superdex 200, GE Healthcare) in a buffer containing 20 mM Hepes (pH 7.4), 50 mM NaCl, 10 mM MgCl2, 0.25 mM TCEP and 0.1 mM EDTA. The purity of the fractions is assessed by SDS PAGE and the peak protein fractions are pooled and concentrated using Amicon Ultra-15 Centrifugal Filter Devices (Millipore).
The inhibitory properties of compounds relative to BTK is determined using a black 384-well-plate format in a buffer which contains 50 mM Hepes, 10 mM NaCl, 10 mM MgCl2, 0.2 mM EDTA, 0.01% Brij35®, 1 mM DTT, and 0.1 mg/mL BSA at pH 7.3. The test compound is prepared in DMSO using 2-fold serial dilutions for 11 data points, which are added to the buffer so that each dilution contains 3% DMSO. […] The reaction mixtures are incubated at room temperature for 60 minutes and then quenched by adding 25 μL of 50 mM EDTA. To quantify the fluorescent-labeled substrate and product following reaction, the test plate is loaded on a Caliper LC-3000, which measures percent of conversion by microfluidic-based separation.
The compounds were tested in accordance with the assay described on page 34 of the specification.

T1 sequence (Q06187 382-659): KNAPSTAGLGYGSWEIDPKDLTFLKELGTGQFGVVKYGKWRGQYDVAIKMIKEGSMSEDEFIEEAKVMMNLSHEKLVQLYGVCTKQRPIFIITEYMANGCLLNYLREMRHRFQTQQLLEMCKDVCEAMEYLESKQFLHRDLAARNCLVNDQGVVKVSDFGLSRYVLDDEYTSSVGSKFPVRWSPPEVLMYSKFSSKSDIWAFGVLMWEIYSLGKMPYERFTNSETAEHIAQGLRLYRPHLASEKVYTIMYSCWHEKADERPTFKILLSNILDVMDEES

| Compound | IC50 [nM] |
| --- | --- |
| NC(=O)c1nnc2c(-c3ccc4nc(C5CCCOC5)[nH]c4c3)cccc2c1N (stereo not shown) [Example 83, 4-amino-8-(2-(tetrahydro-2H-pyran-3-yl)-1H-benzo[d]imidazol-6-yl)cinnoline-3-carboxamide] | 794 |
| NC(=O)c1nnc2c(-c3ccc4nc(CC5CCCCC5)[nH]c4c3)cccc2c1N [Example 78, 4-amino-8-(2-(cyclohexylmethyl)-1H-benzo[d]imidazol-6-yl)cinnoline-3-carboxamide] | 79.4 |
| NC(=O)c1nnc2c(-c3ccc4nc(-c5ccc(F)cc5F)[nH]c4c3)cccc2c1N [Example 118, 4-amino-8-(2-(2,4-difluorophenyl)-1H-benzo[d]imidazol-6-yl)cinnoline-3-carboxamide] | 100 |
| NC(=O)c1nnc2c(-c3ccc4nc[nH]c4c3)cccc2c1N [Example 4, 4-amino-8-(1H-benzo[d]imidazol-6-yl)cinnoline-3-carboxamide] | 79.4 |
| Cc1ccc2c(N)c(C(N)=O)nnc2c1-c1ccc2c(c1)c(C)nn2C [Example 36, 4-amino-8-(1,3-dimethyl-1H-indazol-5-yl)-7-methylcinnoline-3-carboxamide] | 501 |
| Cc1ccc2c(N)c(C(N)=O)nnc2c1-c1ccc2c(C)n[nH]c2c1 [Example 99, 4-amino-7-methyl-8-(3-methyl-1H-indazol-6-yl)cinnoline-3-carboxamide] | 63.1 |
| Cc1ccc2c(N)c(C(N)=O)nnc2c1-c1ccc2ncn(CCC#N)c2c1 [Example 133, 4-amino-8-(1-(2-cyanoethyl)-1H-benzo[d]imidazol-6-yl)-7-methylcinnoline-3-carboxamide] | 501 |
| CC(C)(C)n1cnc2cc(-c3cccc4c(N)c(C(N)=O)nnc34)ccc21 [Example 19, 4-amino-8-(1-tert-butyl-1H-benzo[d]imidazol-5-yl)cinnoline-3-carboxamide] | 15800 |
| COc1cc2[nH]ncc2cc1-c1ccc(F)c2c(N)c(C(N)=O)nnc12 [Example 109, 4-amino-5-fluoro-8-(6-methoxy-1H-indazol-5-yl)cinnoline-3-carboxamide] | 2 |
| NC(=O)c1nnc2c(-c3ccc4nc(NCc5cccs5)[nH]c4c3)cccc2c1N [Example 88, 4-amino-8-(2-(thiophen-2-ylmethylamino)-1H-benzo[d]imidazol-6-yl)cinnoline-3-carboxamide] | 10 |
| Cc1ccc2c(N)c(C(N)=O)nnc2c1-c1ccc2c(Cl)n[nH]c2c1 [Example 108, 4-amino-8-(3-chloro-1H-indazol-6-yl)-7-methylcinnoline-3-carboxamide] | 39.8 |
| Cc1ccc2c(N)c(C(N)=O)nnc2c1-c1ccc2c(c1)CNC2=O [Example 124, 4-amino-7-methyl-8-(1-oxoisoindolin-5-yl)cinnoline-3-carboxamide] | 6.31 |
| NC(=O)c1nnc2c(-c3ccc4nc(C5CCC(F)(F)CC5)[nH]c4c3)cccc2c1N [Example 84, 4-amino-8-(2-(4,4-difluorocyclohexyl)-1H-benzo[d]imidazol-6-yl)cinnoline-3-carboxamide] | 398 |
| NC(=O)c1nnc2c(-c3ccc4nc(-c5cccc(Cl)c5)[nH]c4c3)cccc2c1N [Example 76, 4-amino-8-(2-(3-chlorophenyl)-1H-benzo[d]imidazol-6-yl)cinnoline-3-carboxamide] | 126 |
| Cc1cc2cn[nH]c2cc1-c1cc(N2CCOCC2)cc2c(N)c(C(N)=O)nnc12 [Example 137, 4-amino-8-(5-methyl-1H-indazol-6-yl)-6-morpholinocinnoline-3-carboxamide] | 7.94 |
| NC(=O)c1nnc2c(-c3ccc4nc(-c5cn6ccccc6n5)[nH]c4c3)cccc2c1N [Example 75, 4-amino-8-(2-(imidazo[1,2-a]pyridin-2-yl)-1H-benzo[d]imidazol-6-yl)cinnoline-3-carboxamide] | 126 |
| Cc1ccc2c(N)c(C(N)=O)nnc2c1-c1cnc2[nH]ncc2c1 [Example 47, 4-amino-7-methyl-8-(1H-pyrazolo[3,4-b]pyridin-5-yl)cinnoline-3-carboxamide] | 79.4 |
| Cc1cc(F)c2c(N)c(C(N)=O)nnc2c1-c1ccc2c(c1)CNC2=O [Example 126, 4-amino-5-fluoro-7-methyl-8-(1-oxoisoindolin-5-yl)cinnoline-3-carboxamide] | 12.6 |
| Cc1ccc2c(N)c(C(N)=O)nnc2c1-c1cc(C)c2c(cnn2C)c1 [Example 32, 4-amino-8-(1,7-dimethyl-1H-indazol-5-yl)-7-methylcinnoline-3-carboxamide] | 50.1 |

| Compound | IC50 [nM] |
| --- | --- |
| NC(=O)c1nnc2c(-c3cc4[nH]ncc4cc3Cl)cccc2c1N [Example 105, 4-amino-8-(5-chloro-1H-indazol-6-yl)cinnoline-3-carboxamide] | 15.8 |
| CC(C)n1cnc2cc(-c3cccc4c(N)c(C(N)=O)nnc34)ccc21 [Example 17, 4-amino-8-(1-isopropyl-1H-benzo[d]imidazol-5-yl)cinnoline-3-carboxamide] | 50100 |
| NC(=O)c1nnc2c(-c3ccc4nc(NCC5C6CC7CC(C6)CC5C7)[nH]c4c3)cccc2c1N (stereo not shown) [Example 94, 8-(2-((adamantan-2-ylmethyl)amino)-1H-benzo[d]imidazol-6-yl)-4-aminocinnoline-3-carboxamide] | 63.1 |
| CC(C)(C)Cc1nc2ccc(-c3cccc4c(N)c(C(N)=O)nnc34)cc2[nH]1 [Example 66, 4-amino-8-(2-neopentyl-1H-benzo[d]imidazol-6-yl)cinnoline-3-carboxamide] | 631 |
| Cc1ccc2c(N)c(C(N)=O)nnc2c1-c1ccc2ncn(CCO)c2c1 [Example 134, 4-amino-8-(1-(2-hydroxyethyl)-1H-benzo[d]imidazol-6-yl)-7-methylcinnoline-3-carboxamide] | 794 |
| NC(=O)c1nnc2c(-c3ccc4nc(C5CCCCC5)[nH]c4c3)cccc2c1N [Example 68, 4-amino-8-(2-cyclohexyl-1H-benzo[d]imidazol-6-yl)cinnoline-3-carboxamide] | 158 |
| Cc1nc2ccc(-c3cccc4c(N)c(C(N)=O)nnc34)cc2[nH]1 [Example 16, 4-amino-8-(2-methyl-1H-benzo[d]imidazol-6-yl)cinnoline-3-carboxamide] | 794 |
| Cc1cc2cn[nH]c2cc1-c1cc(N2CCC(O)CC2)cc2c(N)c(C(N)=O)nnc12 [Example 138, 4-amino-6-(4-hydroxypiperidin-1-yl)-8-(5-methyl-1H-indazol-6-yl)cinnoline-3-carboxamide] | 12.6 |
| NC(=O)c1nnc2c(-c3ccc4nc(-c5ccccc5Cl)[nH]c4c3)cccc2c1N [Example 70, 4-amino-8-(2-(2-chlorophenyl)-1H-benzo[d]imidazol-6-yl)cinnoline-3-carboxamide] | 79.4 |
| NC(=O)c1nnc2c(-c3ccc4nc(NCC5CCCC5)[nH]c4c3)cccc2c1N [Example 93, 4-amino-8-(2-(cyclopentylmethylamino)-1H-benzo[d]imidazol-6-yl)cinnoline-3-carboxamide] | 7.94 |
| COc1cc2cn[nH]c2cc1-c1cccc2c(N)c(C(N)=O)nnc12 [Example 110, 4-amino-8-(5-methoxy-1H-indazol-6-yl)cinnoline-3-carboxamide] | 3.98 |
| CN1CCc2cc(-c3cccc4c(N)c(C(N)=O)nnc34)ccc21 [Example 7, 4-amino-8-(1-methylindolin-5-yl)cinnoline-3-carboxamide] | 5010 |
| Cn1ncc2cc(-c3cc(C(F)(F)F)cc4c(N)c(C(N)=O)nnc34)ccc21 [Example 34, 4-amino-8-(1-methyl-1H-indazol-5-yl)-6-(trifluoromethyl)cinnoline-3-carboxamide] | 1580 |
| Cc1ccc2c(N)c(C(N)=O)nnc2c1-c1ccc2cc[nH]c2c1 [Example 26, 4-amino-8-(1H-indol-6-yl)-7-methylcinnoline-3-carboxamide] | 158 |
| Cc1ccc2c(N)c(C(N)=O)nnc2c1-c1ccc2c(C3CC3)n[nH]c2c1 [Example 106, 4-amino-8-(3-cyclopropyl-1H-indazol-6-yl)-7-methylcinnoline-3-carboxamide] | 501 |
| CN1Cc2cc(-c3cccc4c(N)c(C(N)=O)nnc34)ccc2C1=O [Example 123, 4-amino-8-(2-methyl-1-oxoisoindolin-5-yl)cinnoline-3-carboxamide] | 200 |
| Cc1ccc2c(N)c(C(N)=O)nnc2c1-c1ccc2nc(-c3ccc(F)cc3)[nH]c2c1 [Example 120, 4-amino-8-(2-(4-fluorophenyl)-1H-benzo[d]imidazol-6-yl)-7-methylcinnoline-3-carboxamide] | 25.1 |
| NC(=O)c1nnc2c(-c3ccc4nc(-c5ccsc5)[nH]c4c3)cccc2c1N [Example 73, 4-amino-8-(2-(thiophen-3-yl)-1H-benzo[d]imidazol-6-yl)cinnoline-3-carboxamide] | 158 |
